We go through 1 molecule from patent US10519339B2, “Method for applying a coating to a polymeric substrate” (Sophion Bioscience A/S, priority 2012, dated 2019).

A short description of the data set: Adsorption of drugs: recovery from supernatant by ESI-MS after incubation on glass, coated or uncoated polystyrene. The data set is classed as physicochemical. The conditions noted are these: 100 nM drug, FIG. 4, samples stored in glass vials up to 3 days.

Description: Different concentrations of the drugs were dissolved in 2 ml H2O from a stock solution of 0.5 mM in 50% acetonitrile/50% H2O, and added to coated or uncoated polystyrene containers (2 mL solution added to each circular container of diameter 33 mm) as well as glass containers acting as reference material. Drug concentrations up to 250 nM were investigated. At different time points 250 μL of supernatant was sampled for analysis. […] The samples were analyzed by ESI-MS using 50% H2O/50% MeOH/0.1% acetic acid running buffer (0.1 mL/min).
The effectiveness of the low-binding Bz+NHS-PEG coatings were probed by extended incubation of coated and uncoated polystyrene in 100 nM solutions of drugs spanning a wide range of hydrophobicity. Glass surfaces were included as reference to the polystyrene. The supernanants of the incubation solutions were sampled at different time points, and the drug concentrations determined by electrospray ionization mass spectrometry (ESI-MS) after addition of an internal standard.
The recovery was calculated as the ratio of the drug concentration in the supernatant to the initially added drug concentration.

Consider `CCCCc1oc2ccccc2c1C(=O)c1cc(I)c(OCCN(CC)CC)c(I)c1` [amiodarone], for which the “adsorption on glass surface” value is on record as “large adsorption even on the glass surface”.
